Patent CN117899087A, “与g蛋白偶联型雌激素受体结合的治疗乳腺癌的中药提取物及其应用” (Wuxi Hospital of Traditional Chinese Medicine, priority 2024, dated 2024)
Entries after “also recorded” stand apart in the source; their conditions may differ.

What was measured:
[1] = molecular target: T1, GPER-1 overexpressing 293T cells [GPER-1过表达细胞, 293T细胞系] (Homo sapiens, UniProt Q99527); experiment: UPLC-QTOF/MS screening of CGD components binding to GPER-1 overexpressing cells; conditions: GPER gene overexpressing cell line
T1 construct: expressed in transfected cells; host or cells: 293T (HEK-293T), lentiviral recombinant plasmid system
T1 sequence (Q99527 whole entry): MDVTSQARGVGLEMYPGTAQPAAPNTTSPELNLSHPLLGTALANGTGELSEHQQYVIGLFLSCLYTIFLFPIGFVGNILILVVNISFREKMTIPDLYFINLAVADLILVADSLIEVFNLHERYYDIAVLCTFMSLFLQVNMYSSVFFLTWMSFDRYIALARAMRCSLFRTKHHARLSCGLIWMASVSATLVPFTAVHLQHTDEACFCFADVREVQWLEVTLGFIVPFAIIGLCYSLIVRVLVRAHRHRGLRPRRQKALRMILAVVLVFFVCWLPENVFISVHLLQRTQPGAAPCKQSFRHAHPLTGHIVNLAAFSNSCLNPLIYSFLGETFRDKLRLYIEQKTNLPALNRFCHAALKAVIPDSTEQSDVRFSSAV

GPER = GPER (Homo sapiens, UniProt Q99527); experiment: GPER activity (conclusion, no separate method); type: biochemical
Chain of GPER (Q99527 whole entry, species assumed): as the sequence (Q99527 whole entry) above

[2] = molecular target: T2, GPER target protein [GPER靶蛋白] (Homo sapiens, UniProt Q99527); experiment: Cellular thermal shift analysis (CESTA) with Western blot; type: binding; conditions: 10 μM, 24 h, GPER overexpressing HEK-293T
T2 construct: expressed in transfected cells; host or cells: 293T (HEK-293T), lentiviral recombinant plasmid system
T2 sequence (Q99527 whole entry): as above

[3] = tested on: triple-negative breast cancer MDA-MB-231 cells [三阴性乳腺癌MDA-MB-231细胞]; experiment: MTT assay of MDA-MB-231 cell proliferation; type: cell-based; conditions: MDA-MB-231, 24 h
[4] = tested on: retinoid X receptor [类视黄醇X受体]; conditions: cited from earlier work

CC(C)=CCC[C@@H](C(=O)O)[C@H]1[C@H](O)C[C@@]2(C)C3=CC[C@H]4C(C)(C)[C@@H](O)CC[C@]4(C)C3=CC[C@]12C [16α-羟基松苓新酸, 16α-Hydroxydehydrotrametenolic acid]
binding to GPER overexpressing cell line [1]: 能与GPER基因过表达细胞系相结合
GPER activity (GPER): 提高GPER活性
binding ability to GPER (CESTA) [2]: 与GPER具有较强的结合能力; also recorded: 结合能力尤为突出
abundance of GPER target protein after heating vs vehicle ([2]; 55 to 70°C): 丰度高于用载体处理的蛋白质的丰度
stability of target protein ([2]; 55 to 70°C): 增加了靶蛋白的稳定性; also recorded: 能促进GPER靶蛋白的热稳定
inhibition of triple-negative breast cancer cell proliferation at 10 μmol/L ([3]; 10 μmol/L): 具有抑制三阴乳腺癌细胞增殖的能力
inhibition of cancer cell proliferation at 40 μmol/L ([3]; 40 μmol/L): 接近最大抑制能力
inhibition of triple-negative breast cancer cell proliferation ([3]; 0.5-100 μmol/L, Fig. 4): 具有显著的抑制三阴乳腺癌细胞增殖的能力
inhibition at 40 μmol/L compared with 100 μmol/L ([3]; 40 vs 100 μmol/L): 和100μmol/L浓度相当
concentration dependence of cancer cell inhibition ([3]; increasing concentration from 10 μmol/L): 抑制癌细胞的能力随浓度增高而增加
agonism at retinoid X receptor [4]: 天然选择性激动剂
